# In ChEMBL document CHEMBL1221327, “Allicin and derivates are cysteine protease inhibitors with antiparasitic activity” (Bioorg Med Chem Lett, 2010):
# Activity calls are given as the source filed them. The rule behind the calls is not given here.
# What was measured:
# [1] = biological target: T1, Cathepsin B (Homo sapiens, UniProt P07858); experiment: Inhibition of cathepsin B
# [2] = biological target: T2, Procathepsin L (Homo sapiens, UniProt P07711); experiment: Inhibition of cathepsin L
# Target sequence in this assay (P07711 whole entry): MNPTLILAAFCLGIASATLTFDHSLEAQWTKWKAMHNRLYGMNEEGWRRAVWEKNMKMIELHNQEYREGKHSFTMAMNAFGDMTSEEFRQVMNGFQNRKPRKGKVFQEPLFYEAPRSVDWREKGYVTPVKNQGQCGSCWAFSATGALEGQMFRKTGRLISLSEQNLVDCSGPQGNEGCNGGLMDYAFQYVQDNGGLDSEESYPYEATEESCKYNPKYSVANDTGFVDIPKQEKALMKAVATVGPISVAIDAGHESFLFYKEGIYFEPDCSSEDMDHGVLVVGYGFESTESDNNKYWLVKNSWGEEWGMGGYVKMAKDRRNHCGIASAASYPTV
# [3] = Inhibition of Plasmodium falciparum falcipain-2
# [4] = biological target: Rhodesain (Trypanosoma brucei rhodesiense, UniProt Q95PM0); experiment: Inhibition of Trypanosoma brucei rhodesiense rhodesain
# [5] = test system: Plasmodium falciparum; experiment: Antiparasitic activity against Plasmodium falciparum; type: functional, organism-based
# [6] = test system: Plasmodium falciparum; experiment: Time dependent inhibition of Plasmodium falciparum falcipain-2 by Dixon plot analysis
# [7] = biological target: Rhodesain (Trypanosoma brucei rhodesiense) (UniProt Q95PM0); experiment: Time dependent inhibition of Trypanosoma brucei rhodesiense rhodesain by Dixon plot analysis
# [8] = test system: Trypanosoma brucei brucei; experiment: Antiparasitic activity against Trypanosoma brucei brucei; type: functional, organism-based
# [9] = test system: Plasmodium falciparum; experiment: Inhibition of Plasmodium falciparum falcipain-2 at 20 uM
# [10] = biological target: T2, Procathepsin L; experiment: Inhibition of cathepsin L at 20 uM
# Target sequence in this assay (P07711 114-333 limits assumed): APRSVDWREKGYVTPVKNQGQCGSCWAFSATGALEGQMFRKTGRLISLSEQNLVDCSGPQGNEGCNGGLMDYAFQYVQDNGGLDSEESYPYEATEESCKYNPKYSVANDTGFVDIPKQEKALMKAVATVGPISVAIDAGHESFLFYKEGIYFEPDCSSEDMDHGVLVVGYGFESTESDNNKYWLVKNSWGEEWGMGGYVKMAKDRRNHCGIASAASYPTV
# [11] = biological target: T1, Cathepsin B; conditions: 20 uM
# Description: Inhibition of cathepsin B at 20 uM
# [12] = biological target: Rhodesain (Trypanosoma brucei rhodesiense) (UniProt Q95PM0); experiment: Inhibition of Trypanosoma brucei rhodesiense rhodesain at 20 uM
# [13] = biological target: T2, Procathepsin L; experiment: Time dependent inhibition of cathepsin L by Dixon plot analysis
# Target sequence in this assay (P07711 114-333 limits assumed): as above
# [14] = biological target: T1, Cathepsin B; experiment: Inhibition of cathepsin B at 100 uM
# [15] = test system: Plasmodium falciparum; experiment: Inhibition of Plasmodium falciparum falcipain-2 at 100 uM
# [16] = biological target: T2, Procathepsin L; experiment: Inhibition of cathepsin L at 100 uM
# Target sequence in this assay (P07711 114-333 limits assumed): as above
# Chain of Rhodesain (Q95PM0 whole entry): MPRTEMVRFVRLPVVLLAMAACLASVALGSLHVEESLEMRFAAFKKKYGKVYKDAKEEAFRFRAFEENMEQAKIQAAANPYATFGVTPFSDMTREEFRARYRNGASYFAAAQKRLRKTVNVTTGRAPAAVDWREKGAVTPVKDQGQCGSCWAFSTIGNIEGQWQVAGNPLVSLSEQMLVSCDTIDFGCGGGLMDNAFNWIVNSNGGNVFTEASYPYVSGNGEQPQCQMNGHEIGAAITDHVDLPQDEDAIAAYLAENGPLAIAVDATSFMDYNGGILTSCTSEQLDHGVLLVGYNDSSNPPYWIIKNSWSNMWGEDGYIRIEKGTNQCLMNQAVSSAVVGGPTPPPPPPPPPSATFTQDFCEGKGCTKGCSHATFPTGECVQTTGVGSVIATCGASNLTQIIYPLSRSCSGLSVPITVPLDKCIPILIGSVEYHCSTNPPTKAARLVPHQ
# Chain of Rhodesain (Trypanosoma brucei rhodesiense) (Q95PM0 1-450): as the sequence (Q95PM0 whole entry) above
smiles,measurement,setting,value
[O-][S+](SC1CCCCC1)C1CCCCC1 (stereo unspecified),Ki,[1],> 100 µM
same,Ki,[2],> 100 µM
same,Ki,[3],> 100 µM
same,Ki,[4],> 100 µM
same,IC50,[5],34.4 µM
[O-][S+](Cc1ccccc1)SCc1ccccc1 (stereo unspecified),TDI,[6],48600 min⁻¹ M⁻¹
same,Ki,[1],7.8 µM
same,Ki,[2],31.7 µM
same,Ki,[3],4.5 µM
same,Ki,[4],2.31 µM
same,IC50,[5],30.3 µM
same,TDI,[7],7800 min⁻¹ M⁻¹
CCCCCCS[S+]([O-])CCCCCC (stereo unspecified),TDI,[6],44100 min⁻¹ M⁻¹
same,Ki,[1],5.94 µM
same,Ki,[2],10.4 µM
same,Ki,[3],1.8 µM
same,Ki,[4],1 µM
same,IC50,[5],10.9 µM
same,IC50,[8],3.08 µM
same,TDI,[7],83500 min⁻¹ M⁻¹
C=CCS[S+]([O-])CC=C (stereo unspecified) [ALLICIN],Ki,[1],8.6 µM
same,inhibition,[9],inactive
same,Ki,[2],9.3 µM
same,inhibition,[10],inactive
same,Ki,[3],1.04 µM
same,Ki,[4],5.31 µM
same,IC50,[5],5.21 µM
same,inhibition,[11],inactive
same,inhibition,[12],inactive
same,IC50,[8],13.8 µM
CCCS[S+]([O-])CCC (stereo unspecified),TDI,[6],10800 min⁻¹ M⁻¹
same,Ki,[1],15.6 µM
same,TDI,[13],6660 min⁻¹ M⁻¹
same,Ki,[2],11.3 µM
same,Ki,[3],26.4 µM
same,Ki,[4],4.44 µM
same,IC50,[5],78.3 µM
same,IC50,[8],> 40 µM
same,TDI,[7],7150 min⁻¹ M⁻¹
CC(C)CCS[S+]([O-])CCC(C)C (stereo unspecified),Ki,[1],18.9 µM
same,Ki,[2],3.4 µM
same,Ki,[3],3.04 µM
same,Ki,[4],0.36 µM
same,IC50,[5],54.7 µM
CC(C)(C)S[S+]([O-])Cc1ccccc1 (stereo unspecified),inhibition,[14],inactive
same,Ki,[2],> 100 µM
same,Ki,[4],> 100 µM
same,inhibition,[15],inactive
same,IC50,[5],52.9 µM
same,IC50,[8],11.9 µM
CC(C)(C)S[S+]([O-])C(C)(C)C (stereo unspecified),inhibition,[16],inactive
same,inhibition,[14],inactive
same,Ki,[3],> 100 µM
same,Ki,[4],> 100 µM
same,IC50,[5],72.5 µM
same,IC50,[8],> 40 µM
